Experimental data: patent US20180133211A1, “METHODS AND MATERIALS FOR PROMOTING BONE FORMATION” (Mayo Foundation for Medical Education and Research, priority 2015, published 2018)

Key:
BMSCs = test: RT-qPCR mRNA expression; type: cell-based, mouse
Procedure: Mouse bone marrow mesenchymal stem cells were isolated from aseptically dissected long bones of 6-week old C57BL/6 mice (Himberg, Austria). The marrow cavities were flushed with sterile medium using a 25-gauge needle, and the culture was established in α-MEM supplemented with 10% FCS and […]. After 48 hours of culture at 5% CO2 and 37° C., the non-adherent cells were removed by gentle rinsing with PBS. At confluence, cells were harvested and seeded at a density of 3,000/cm^2 for cell experiments. […]
Total RNA was extracted using the SV Total RNA Isolation kit (Promega) following the supplier's instructions. cDNA was synthesized from about 0.5 μg RNA using the First Strand cDNA Synthesis kit (Roche) as described by the supplier. The resulting cDNAs were subjected to quantitative PCR amplification with a real-time cycler using the QUANTITECT™ SYBR® Green PCR Kit (Qiagen, Hilden, Germany) for the genes Alpl, Fas, Lox, Tet1, Tet2, and TAQMAN® Gene expression Master Mix (Applied Biosystems, Foster City, Calif., USA) for measuring Runx2, Bglap2, Colla1, Tnfsf11, and 18S rRNA expression (for primers, see Table 1). […] All RT-qPCR assays were performed in triplicate, and expression was evaluated using the comparative quantification method (Pfaffl, Nucleic Acids Res., 29:e45 (2001)).

female C57BL/6 mice = test: Bone histomorphometry of distal femur after 5 weeks of GSK126; type: in vivo, mouse; conditions: for N.Ob/B.pm / N.Ob/T.Ar / N.Oc/B.Pm / N.Oc/T.Ar / Ob.S/BS / Oc.S/BS: mean
Procedure: Female C57BL/6 mice (Harlan Laboratories) were maintained on a 12-hour light/12-hour dark cycle and were permitted ad libitum access to food and water. For efficacy studies, 6-week old mice received daily intraperitoneal (IP) injections of GSK126 at 15 mg/kg, 50 mg/kg, or vehicle (DMSO) in 20% Captisol adjusted to pH 4-4.5 with IN acetic acid (McCabe et al., Nature, 492:108-112 (2012)) for 5 weeks.
The dosage, delivery schedule, and administration route were similar to those described elsewhere (McCabe et al., Nature, 492:108-112 (2012)). Animals were weighed daily. To label mineralizing bone surfaces, mice received subcutaneous injections of calcein (10 mg/kg) 5 days and 24 hours before euthanasia.
The right distal femur was processed for static and dynamic histomorphometry as described elsewhere (McGee-Lawrence et al., Bone, 48:1117-1126 (2011)). Thin (5 μm) sections were stained with Von Kossa/McNeal's tetrachrome to highlight osteoblast surfaces and Goldner's trichrome to examine mineralizing surface and bone surfaces. Osteoclasts were detected using TRAP staining. Unstained sections were used for assessment of dynamic histomorphometry and bone area. Slides were digitized under 40× magnification using Mikroscan D2 digital whole slide scanner and Q-Skan software (Mikroscan Technologies). Beginning 450 μm proximal to the growth plate, mineralizing surface (MS/BS, %/day), mineral apposition rate (MAR, μm/day), bone formation rate (BFR/BV, %/day), osteoblast surface/bone surface (Ob.S/BS, %), osteoblast number/bone perimeter (N.Ob/B.Pm, #/mm), osteoclast surface/bone surface (Oc.S/BS, %), and osteoclast number/bone perimeter (N.Oc/B.Pm, #/mm) were quantified using Image J software as described elsewhere (Schneider et al., Nat. Methods, 9:671-675 (2012) and Egan et al., Histopathology, 61:1168-1173 (2012)).

[1] = distal femoral metaphysis, 15 mg/kg
[2] = distal femoral metaphysis, 50 mg/kg

Row | Structure (SMILES) | Bglap2 mRNA expression (BMSCs) | Runx2 mRNA expression (BMSCs; 3 μM) | N.Ob/B.pm (female C57BL/6 mice; [1]) | N.Ob/T.Ar (female C57BL/6 mice; [1]) | N.Oc/B.Pm (female C57BL/6 mice; [1]) | N.Oc/T.Ar (female C57BL/6 mice; [1]) | Ob.S/BS (female C57BL/6 mice; [1]) | N.Ob/B.pm (female C57BL/6 mice; [2]) | N.Ob/T.Ar (female C57BL/6 mice; [2]) | N.Oc/B.Pm (female C57BL/6 mice; [2]) | N.Oc/T.Ar (female C57BL/6 mice; [2]) | Ob.S/BS (female C57BL/6 mice; [2]) | interlabel thickness (Ir.L.Th), mineral apposition rate (MAR) and bone formation rate (BFR) (female C57BL/6 mice; dynamic histomorphometry, GSK126 50 mg/kg vs vehicle) | Oc.S/BS (female C57BL/6 mice; static histomorphometry, distal femoral metaphysis, 15 mg/kg) | Oc.S/BS (female C57BL/6 mice; static histomorphometry, distal femoral metaphysis, 50 mg/kg) | osteoblast surface area per bone surface area (Ob.S/BS) (female C57BL/6 mice; static histomorphometry, distal femoral metaphysis, in words (FIG. 19C)) | number of osteoblasts per bone perimeter (N. Ob./B.Pm) (female C57BL/6 mice; static histomorphometry, distal femoral metaphysis, in words (FIG. 19D))
1 | C[S+]([O-])CCCCN=C=S (racemic) [DL-SFN] | up regulated | stimulates | – | – | – | – | – | – | – | – | – | – | – | – | – | – | –
2 | CC[C@H](C)n1cc(C)c2c(C(=O)NCc3c(C)cc(C)[nH]c3=O)cc(-c3ccc(N4CCNCC4)nc3)cc21 [GSK126, N-[(1,2-dihydro-4,6-dimethyl-2-oxo-3-pyridinyl)methyl]-3-methyl-1-[(1S)-1-methylpropyl]-6-[6-(1-piperazinyl)-3-pyridinyl]-1H-indole-4-carboxamide] | – | – | 0.028 #/mm | 0.109 | 0.015 #/mm | 0.042 | 0.354% | 0.040 #/mm | 0.081 | 0.018 #/mm | 0.050 | 0.551% | enhanced | 0.314% | 0.240% | increase | increase
